These are literature values, as cited in US6461848B1, “Human heparanase polypeptide and cDNA” (Novartis AG, priority 1998, dated 2002).

The subject of data set [1] is B16-F10 melanoma. The note with it: C57BL/6N mice, B16-F10 experimental lung metastasis.
Data set [2] relates to human pancreatic (Ca-Pan-2) adenocarcinoma. To be noted: subcutaneous Ca-Pan-2 adenocarcinoma, nude mice.
Data set [3] has as its target T1, heparanase (Homo sapiens, UniProt Q9Y251).
T1 sequence (Q9Y251 36-543): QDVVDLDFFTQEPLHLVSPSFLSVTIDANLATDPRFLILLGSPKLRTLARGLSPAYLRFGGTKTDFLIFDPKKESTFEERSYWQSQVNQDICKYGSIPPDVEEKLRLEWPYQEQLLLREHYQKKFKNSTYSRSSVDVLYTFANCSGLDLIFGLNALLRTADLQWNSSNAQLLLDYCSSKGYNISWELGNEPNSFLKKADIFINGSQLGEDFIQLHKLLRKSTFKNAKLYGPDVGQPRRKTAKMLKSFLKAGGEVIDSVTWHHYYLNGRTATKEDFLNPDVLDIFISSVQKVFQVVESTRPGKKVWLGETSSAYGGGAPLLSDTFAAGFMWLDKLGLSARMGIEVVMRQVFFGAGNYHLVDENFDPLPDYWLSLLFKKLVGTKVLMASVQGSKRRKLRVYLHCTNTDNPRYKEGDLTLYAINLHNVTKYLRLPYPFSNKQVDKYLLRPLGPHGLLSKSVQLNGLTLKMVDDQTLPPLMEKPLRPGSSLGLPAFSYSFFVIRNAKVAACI

In data set [4] the target is T2, heparanase (Mus musculus, UniProt Q6YGZ1).
T2 sequence (Q6YGZ1 28-535): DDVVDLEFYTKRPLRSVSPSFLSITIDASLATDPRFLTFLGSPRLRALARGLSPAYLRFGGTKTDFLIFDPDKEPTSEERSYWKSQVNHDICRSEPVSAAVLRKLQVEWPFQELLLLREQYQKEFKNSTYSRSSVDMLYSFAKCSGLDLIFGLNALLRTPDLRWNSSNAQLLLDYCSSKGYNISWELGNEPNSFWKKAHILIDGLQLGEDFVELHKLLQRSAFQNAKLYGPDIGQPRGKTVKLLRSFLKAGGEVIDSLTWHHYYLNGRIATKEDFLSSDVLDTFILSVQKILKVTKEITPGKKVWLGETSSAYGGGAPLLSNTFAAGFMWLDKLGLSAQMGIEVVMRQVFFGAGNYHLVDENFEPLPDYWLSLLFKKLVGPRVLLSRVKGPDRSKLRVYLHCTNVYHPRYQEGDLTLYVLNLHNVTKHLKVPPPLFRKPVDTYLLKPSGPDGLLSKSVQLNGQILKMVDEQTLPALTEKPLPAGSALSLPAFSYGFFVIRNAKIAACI

The test system of data set [5] is murin melanoma.
Data set [6] addresses T3, murin melanoma heparanase (Mus musculus, UniProt Q6YGZ1).
T3 construct: host or cells: murine melanoma
T3 sequence (Q6YGZ1 28-535): T2 sequence (Q6YGZ1 28-535)

As to 2,3-O-desulfated heparin, the survival times entry in data set [1] is “prolonged”. The “inhibition of tumor growth” value in data set [2] was “inhibit”. Also, the “inhibition of heparanase activity” value in data set [3] is given as “inhibit”.

Regarding `O=C(O)[C@@H](O)[C@H]1OC(=O)[C@H](O)[C@H]1O` [1,4-saccharolactone], the inhibition of heparanase result in data set [4] is given as “not”.

Take `Cc1ccc(C(=O)Nc2ccc(S(=O)(=O)O)c3cc(S(=O)(=O)O)cc(S(=O)(=O)O)c23)cc1NC(=O)c1cccc(NC(=O)Nc2cccc(C(=O)Nc3cc(C(=O)Nc4ccc(S(=O)(=O)O)c5cc(S(=O)(=O)O)cc(S(=O)(=O)O)c45)ccc3C)c2)c1` [Suramin]: in data set [5], the “inhibition of melanoma invasion” value is listed as “strongly inhibit”. For the same compound, the “inhibition of murin melanoma heparanase” value in data set [6] was “strongly inhibit”.

For heparin, the inhibition of heparanase entry in data set [4] is on record as “inhibited”.
